# Measurements as given in patent publication US9260439B2, “Dihydropyrrolopyrimidine derivatives” (PFIZER INC., priority 2014, dated 2016).
# Molecular target: truncated PI3Kα (p110α/iSH2 p85α) (Homo sapiens (Human), UniProt P42336)
# Assay: PI3KA_Act fluorescence polarization kinase assay (Ki)
# Type: biochemical
# Settings: 1 mM ATP
# Outline: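 p110α/iSH2 p85α (0.5 nM) was reacted with 30 μM sonicated PIP2 in 50 mM HEPES pH 7.4, 150 mM NaCl, 5 mM MgCl2, 1 mM DTT and 0.05% CHAPS for 30 min at room temperature, then stopped with EDTA. PIP3 was detected by fluorescence polarization (GST-Grp1 PH domain/TAMRA-PIP3), and Ki came from a Morrison tight-binding fit.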
# Chain of truncated PI3Kα (p110α/iSH2 p85α) (P42336 whole entry, the tested form may be a part): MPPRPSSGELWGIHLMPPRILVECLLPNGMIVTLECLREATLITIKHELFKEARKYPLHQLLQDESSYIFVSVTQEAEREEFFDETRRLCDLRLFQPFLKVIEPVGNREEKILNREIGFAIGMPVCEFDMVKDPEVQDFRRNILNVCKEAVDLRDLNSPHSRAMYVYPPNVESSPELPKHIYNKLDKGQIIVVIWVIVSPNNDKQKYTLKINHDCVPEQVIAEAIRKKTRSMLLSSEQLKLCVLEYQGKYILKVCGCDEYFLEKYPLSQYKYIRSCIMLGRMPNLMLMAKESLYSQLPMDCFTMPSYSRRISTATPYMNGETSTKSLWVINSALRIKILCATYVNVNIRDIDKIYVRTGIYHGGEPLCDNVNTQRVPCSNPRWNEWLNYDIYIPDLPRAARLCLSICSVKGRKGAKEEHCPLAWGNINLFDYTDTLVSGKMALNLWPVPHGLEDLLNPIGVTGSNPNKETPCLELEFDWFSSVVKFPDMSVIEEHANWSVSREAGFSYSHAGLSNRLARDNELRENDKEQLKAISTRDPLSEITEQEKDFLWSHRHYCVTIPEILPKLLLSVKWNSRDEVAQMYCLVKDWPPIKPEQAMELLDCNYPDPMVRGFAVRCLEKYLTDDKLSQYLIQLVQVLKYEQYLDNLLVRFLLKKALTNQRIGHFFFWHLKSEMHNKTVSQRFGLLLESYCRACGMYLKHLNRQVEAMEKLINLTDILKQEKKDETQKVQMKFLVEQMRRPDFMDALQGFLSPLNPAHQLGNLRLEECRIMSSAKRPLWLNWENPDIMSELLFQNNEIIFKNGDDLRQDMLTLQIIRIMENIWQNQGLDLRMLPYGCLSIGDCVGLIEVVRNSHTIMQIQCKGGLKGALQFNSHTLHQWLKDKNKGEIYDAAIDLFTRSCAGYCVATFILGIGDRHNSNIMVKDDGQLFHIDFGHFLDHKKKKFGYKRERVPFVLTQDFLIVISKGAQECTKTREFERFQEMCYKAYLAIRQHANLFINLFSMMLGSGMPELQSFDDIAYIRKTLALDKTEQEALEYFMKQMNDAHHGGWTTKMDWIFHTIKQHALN
SMILES,PI3KA_Act Ki [nM],Ki [nM]
C[C@@H]1COCCN1c1nc(-c2cnc(N)nc2)c2c(n1)N([C@]1(C)CCN(C(=O)OC(C)(C)C)C1)CC2 [Example 230],6.996,–
C[C@@H]1COCCN1c1nc(-c2cnc(N)nc2)c2c(n1)N([C@@]1(C)CCN(S(C)(=O)=O)C1)CC2 [Example 231],1.493,–
C[C@@H]1COCCN1c1nc(-c2cnc(N)nc2)c2c(n1)N([C@]1(C)CCN(S(C)(=O)=O)C1)CC2 [Example 232],4.263,–
[2H]C1([2H])CN(c2nc(-c3cnc(N)nc3)c3c(n2)N([C@@]2(C)CCN(C(=O)C(C)(C)N)C2)CC3)CC([2H])([2H])O1 [Example 233],–,< 0.018
[2H]C1([2H])CN(c2nc(-c3cnc(N)nc3)c3c(n2)N([C@@]2(C)CCN(C(=O)C(C)(C)NC(=O)OC(C)(C)C)C2)CC3)CC([2H])([2H])O1 [Example 234],–,0.509
[2H]C1([2H])OC([2H])([2H])C([2H])([2H])N(c2nc(-c3cnc(N)nc3)c3c(n2)N([C@@]2(C)CCN(C(=O)C(C)(C)NC(=O)OC(C)(C)C)C2)CC3)C1([2H])[2H] [Example 235],–,0.693
[2H]C1([2H])OC([2H])([2H])C([2H])([2H])N(c2nc(-c3cnc(N)nc3)c3c(n2)N([C@@]2(C)CCN(C(=O)C4(C)CC4)C2)CC3)C1([2H])[2H] [Example 236],–,< 0.018
[2H]C1([2H])CN(c2nc(-c3cnc(N)nc3)c3c(n2)N([C@@]2(C)CCN(C(=O)C4(C)CC4)C2)CC3)CC([2H])([2H])O1 [Example 237],–,0.025
[2H]C1([2H])OC([2H])([2H])C([2H])([2H])N(c2nc(-c3cnc(N)nc3)c3c(n2)N([C@@]2(C)CCN(C(=O)OC(C)(C)C)C2)CC3)C1([2H])[2H] [Example 238],–,< 0.018
[2H]C1([2H])CN(c2nc(-c3cnc(N)nc3)c3c(n2)N([C@@]2(C)CCN(C(=O)OC(C)(C)C)C2)CC3)CC([2H])([2H])O1 [Example 239],–,< 0.018
"CC(=O)N1CC(C)(N2CCc3c(-c4cnc(N)nc4)nc(N4CCOCC4)nc32)C1 [Example 240, 1-{3-[4-(2-aminopyrimidin-5-yl)-2-(morpholin-4-yl)-5,6-dihydro-7H-pyrrolo[2,3-d]pyrimidin-7-yl]-3-methylazetidin-1-yl}ethanone]",0.093,–
"CC(C)(O)C(=O)N1CC(N2CCc3c(-c4cnc(N)nc4)nc(N4CCOCC4)nc32)C1 [Example 241, 1-{3-[4-(2-aminopyrimidin-5-yl)-2-(morpholin-4-yl)-5,6-dihydro-7H-pyrrolo[2,3-d]pyrimidin-7-yl]azetidin-1-yl}-2-hydroxy-2-methylpropan-1-one]",1.174,–
"CC(C)(O)C(=O)N1CC(C)(N2CCc3c(-c4cnc(N)nc4)nc(N4CCOCC4)nc32)C1 [Example 242, 1-{3-[4-(2-aminopyrimidin-5-yl)-2-(morpholin-4-yl)-5,6-dihydro-7H-pyrrolo[2,3-d]pyrimidin-7-yl]-3-methylazetidin-1-yl}-2-hydroxy-2-methylpropan-1-one]",0.158,–
"CC(C)(N)C(=O)N1CC(C)(N2CCc3c(-c4cnc(N)nc4)nc(N4CCOCC4)nc32)C1 [Example 243, 2-amino-1-{3-[4-(2-aminopyrimidin-5-yl)-2-(morpholin-4-yl)-5,6-dihydro-7H-pyrrolo[2,3-d]pyrimidin-7-yl]-3-methylazetidin-1-yl}-2-methylpropan-1-one]",0.165,–
"CCC(=O)NCC(=O)N1CC(N2CCc3c(-c4cnc(N)nc4)nc(N4CCOCC4)nc32)C1 [Example 244, N-(2-{3-[4-(2-aminopyrimidin-5-yl)-2-(morpholin-4-yl)-5,6-dihydro-7H-pyrrolo[2,3-d]pyrimidin-7-yl]azetidin-1-yl}-2-oxoethyl)propanamide]",0.598,–
"CC1(C(=O)N2CC(N3CCc4c(-c5cnc(N)nc5)nc(N5CCOCC5)nc43)C2)CC1 [Example 245, {3-[4-(2-aminopyrimidin-5-yl)-2-(morpholin-4-yl)-5,6-dihydro-7H-pyrrolo[2,3-d]pyrimidin-7-yl]azetidin-1-yl}(1-methylcyclopropyl) methanone]",4.212,–
"CC1(C(=O)N2CC(C)(N3CCc4c(-c5cnc(N)nc5)nc(N5CCOCC5)nc43)C2)CC1 [Example 246, {3-[4-(2-aminopyrimidin-5-yl)-2-(morpholin-4-yl)-5,6-dihydro-7H-pyrrolo[2,3-d]pyrimidin-7-yl]-3-methylazetidin-1-yl}(1-methylcyclopropyl) methanone]",0.060,–
"COC(=O)N1CC(C)(N2CCc3c(-c4cnc(N)nc4)nc(N4CCOCC4)nc32)C1 [Example 247, methyl 3-[4-(2-aminopyrimidin-5-yl)-2-(morpholin-4-yl)-5,6-dihydro-7H-pyrrolo[2,3-d]pyrimidin-7-yl]-3-methylazetidine-1-carboxylate]",0.055,–
"CC(C)(C)OC(=O)N1CC(N2CCc3c(-c4cnc(N)nc4)nc(N4CCOCC4)nc32)C1 [Example 248, tert-butyl 3-[4-(2-aminopyrimidin-5-yl)-2-(morpholin-4-yl)-5,6-dihydro-7H-pyrrolo[2,3-d]pyrimidin-7-yl]azetidine-1-carboxylate]",0.212,–
"CC(C)(C)OC(=O)N1CC(C)(N2CCc3c(-c4cnc(N)nc4)nc(N4CCOCC4)nc32)C1 [Example 249, tert-butyl 3-[4-(2-aminopyrimidin-5-yl)-2-(morpholin-4-yl)-5,6-dihydro-7H-pyrrolo[2,3-d]pyrimidin-7-yl]-3-methylazetidine-1-carboxylate]",0.019,–
"CNC(=O)N1CC(C)(N2CCc3c(-c4cnc(N)nc4)nc(N4CCOCC4)nc32)C1 [Example 250, 3-[4-(2-aminopyrimidin-5-yl)-2-(morpholin-4-yl)-5,6-dihydro-7H-pyrrolo[2,3-d]pyrimidin-7-yl]-N,3-dimethylazetidine-1-carboxamide]",0.120,–
"Nc1ncc(-c2nc(N3CCOCC3)nc3c2CCN3C2CN(S(=O)(=O)C3CCC3)C2)cn1 [Example 251, 5-{7-[1-(cyclobutylsulfonyl)azetidin-3-yl]-2-(morpholin-4-yl)-6,7-dihydro-5H-pyrrolo[2,3-d]pyrimidin-4-yl}pyrimidin-2-amine]",1.652,–
"Nc1ncc(-c2nc(N3CCOCC3)nc3c2CCN3C2CN(S(=O)(=O)N3CCC3)C2)cn1 [Example 252, 5-{7-[1-(azetidin-1-ylsulfonyl)azetidin-3-yl]-2-(morpholin-4-yl)-6,7-dihydro-5H-pyrrolo[2,3-d]pyrimidin-4-yl}pyrimidin-2-amine]",0.158,–
"C[C@]1(N2CCc3c(-c4cnc(N)nc4)nc(N4CCOCC4)nc32)CCNC1.Cl [Example 253, 5-{7-[(3S)-3-methylpyrrolidin-3-yl]-2-(morpholin-4-yl)-6,7-dihydro-5H-pyrrolo[2,3-d]pyrimidin-4-yl}pyrimidin-2-amine hydrochloride]",0.160,–
"Cl.Nc1ncc(-c2nc(N3CCOCC3)nc3c2CCN3[C@@H]2CNC[C@@H]2F)cn1 [Example 254, 5-{7-[(3R,4S)-4-fluoropyrrolidin-3-yl]-2-(morpholin-4-yl)-6,7-dihydro-5H-pyrrolo[2,3-d]pyrimidin-4-yl}pyrimidin-2-amine hydrochloride]",1.893,–
